Article PMC6826616, “Topical 2′-Hydroxyflavanone for Cutaneous Melanoma” (Cancers, 2019)
Where two headings read alike, the source gives them in different places.

Experiments:
[1] = tested on: B16-F0 cells; assay: Western blot densitometry of whole-cell lysates, B16-F0; format: cell-based, mouse; conditions: 48 h
Protocol: (§1) B16-F0, F16-F10, and SK-MEL-24 cells were treated for 24 h with vehicle, 50 µM, and 100 µM 2HF. Cells were harvested and lysates prepared for Western blot using a radioimmunoprecipitation assay (RIPA) buffer with a protease (complete ULTRA) and phosphatase inhibitor (PhosSTOP) cocktail (Sigma-Aldrich, St. Louis, MO, USA). Total cell lysates (25 µg/lane) were loaded on 4–12% bis-tris gels, with MES gel running buffer. Proteins were transferred to nitrocellulose membrane, and nonspecific binding was minimized with 1× clear milk blocking buffer +0.1%TWEEN 20 (ThermoFisher Scientific, Waltham, MA, USA) for 1 h at room temperature. All primary antibodies were purchased from Santa Cruz Biotechnology except mouse monoclonal, TNF-α (Invitrogen), (1:1000), in 1× clear milk +0.1% TWEEN 20 overnight at 4 °C. Secondary antibody from Santa Cruz Biotech (1:2000) was incubated for 1 h at room temperature in 1× clear milk, 0.1% TWEEN 20.
(§2) Supplemental data for Fig. 2C. Caspase 9
(§3) Numbers below of each blot represent protein 1.0 1.2 0.5 ND ND ND ND ND ND band intensity ratios to adequate controls after Procaspase 3 […]
(§4) RAL BP- 1 and apoptosis enzymes in SK-Mel-24, B16F0 17kD Active caspase 3 […]
(§5) 48h. Cells were plated in complete growth medium. After overnight, cells were treated with different doses of 2HF, and PARP-1 incubated for 48h. Total cell lysates (40 µg/lane) were […]
(§6) buffer. Proteins were transferred to nitrocellulose C-terminal cleaved membrane, nonspecific binding was done in 1X clear milk, PARP~89kDa
(§7) +0.1%T20 (Invitrogen) for 1h at room temperature. All primary antibodies were from (mouse monoclonal, 1.0 0.8 0.9 1.0 0.9 ND 1.0 1.1 ND Santacruze Biotechnology (1:1000), in 1X clear milk
(§8) +0.1%T20 overnight in 40C. Secondary antibody from N-terminal cleaved
(§9) Santacruze Biotech (1:2000) for 1h at room temperature in PARP~24kDa […]
(§10) Supplemental Figure 7 Supplemental data for Fig. 5.
(§11) B16F0 SK-Mel- 24 B16F10Numbers below of each blot represent protein band intensity ratios to adequate
(§12) TNF-α Full blots are presented in next 4 figures. […]
(§13) cells after treatment with 50, 100 µM 2HF for 48h.
(§14) Raf-1 Raf-1 Cells were plated in complete growth medium. After overnight, cells were treated with different doses of 2HF, […]
(§15) loaded on 4- 12% bis-tris gel, with 1X MES gel running p-MEK-1 p-MEK-1 buffer. Proteins were transferred to nitrocellulose membrane, nonspecific binding was done in 1X clear
(§16) All primary antibodies were from (mouse monoclonal, MEKK15 MEKK15 except TNF-α (American Hamster), Santacruze
(§17) 1.0 0.9 0.1 ND ND ND overnight in 40C. Secondary antibody from Santacruze Biotech (1:2000) for 1h at room temperature in 1X clear […]

[2] = tested on: SK-MEL-24 cells; assay: MTT cytotoxicity assay, SK-MEL-24; format: cell-based; conditions: Homo sapiens
Source text: We studied the growth-inhibitory effects of 2HF on the B16-F0 and B16-F10 murine melanoma cell lines as well as on the SK-MEL-24 human melanoma cell line. B16-F10 and SK-MEL-24 have been shown in previous studies to be highly resistant to treatment and much more invasive than B16-F0 [32]. […] The absorption value measured upon reduction of the MTT dye by functional mitochondria is an indirect measure of cell number that cannot distinguish inhibited cell proliferation from apoptotic or necrotic cell death. By counting viable (trypan-blue dye-excluding) cells using a hemacytometer, we verified that 2HF did indeed cause cell death.
Figure 1 Mouse and human melanoma cell survival following 2′-hydroxyflavanone (2HF) treatment.
The IC50 of 2HF on B16-F0, B16-F10, and SK-MEL-24 cells was determined by MTT cytotoxicity assay. Cells were harvested and Trypan Blue dye exclusion test was used to determine the number of viable cells present in a cell suspension using a hemocytometer. The cell suspension was diluted to 5 × 10^4 cells/mL with Dulbecco’s Modified Eagle’s Medium (DMEM) complete medium and 5000 cells/well were plated in 96-well plates. After 24 h incubation at 37 °C, cells were treated with 2HF concentrations ranging from 0–200 µM (8 replicates per plate). After 48 or 72 h incubation, 40 µL of MTT (5 mg/mL) solution was added. After 4 h incubation, the plate was centrifuged at 700× g for 5 min and medium was aspirated completely. Then, 50 µL DMSO was added to each well to dissolve the purple precipitate on the rocking platform for about 15 min. The absorbance was then measured at 490 nm using a 96-well microplate reader (Spectramax Plus, Molecular Devices, Inc, San Jose, CA, USA).

[3] = tested on: B16-F10 cells; assay: Western blot densitometry of whole-cell lysates, B16-F10; format: cell-based, mouse; conditions: 48 h
Protocol: as §1, with “B16-F0, F16-F10, and SK-MEL-24 cells were treated for 24 h with vehicle, 50 µM, and 100 µM 2HF.” left out, “Total cell lysates (25 µg/lane) were loaded on 4–12% bis-tris gels, with MES gel running buffer.” left out
as §2, §3, §4, §5, §6, §7, §8, §9, §10, §11, §12, §13, §14, §15, §16, §17

`O=C1CC(c2ccccc2O)Oc2ccccc21` (centres unmarked) [2HF, 2′-hydroxyflavanone] was tested, and the “Active caspase 3 band intensity ratio to control (normalized against β-Actin)” value ([1]; B16F0, 50 µM 2HF) was 0.9, the “C-terminal cleaved PARP~89kDa band intensity ratio to control (normalized against β-Actin)” value ([1]; B16F0, 50 µM 2HF) was 0.9 and the “MEKK15 band intensity ratio to control (normalized against β-Actin)” value ([1]; B16F0, 50 µM 2HF) was 1.0. For the same compound, the “N-terminal cleaved PARP~24kDa band intensity ratio to control (normalized against β-Actin)” value ([1]; B16F0, 50 µM 2HF) was 0.9, the “PARP-1 band intensity ratio to control (normalized against β-Actin)” value ([1]; B16F0, 50 µM 2HF) was 0.9 and the “PKC α band intensity ratio to control (normalized against β-Actin)” value ([1]; B16F0, 50 µM 2HF) was 0.6. For the same compound, the “Procaspase 3 band intensity ratio to control (normalized against β-Actin)” value ([1]; B16F0, 50 µM 2HF) was 1.0, the “RAL BP-1 band intensity ratio to control (normalized against β-Actin)” value ([1]; B16F0, 50 µM 2HF) was 0.9 and the “Raf-1 band intensity ratio to control (normalized against β-Actin)” value ([1]; B16F0, 50 µM 2HF) was 0.2. For the same compound, the “TNF-α band intensity ratio to control (normalized against β-Actin)” value ([1]; B16F0, 50 µM 2HF) was 0.4, the “p-MEK-1 band intensity ratio to control (normalized against β-Actin)” value ([1]; B16F0, 50 µM 2HF) was 0.8 and the “p-PDGFR-β band intensity ratio to control (normalized against β-Actin)” value ([1]; B16F0, 50 µM 2HF) was 0.3. The “Active caspase 3 band intensity ratio to control (normalized against β-Actin)” value ([1]; B16F0, 100 µM 2HF) was 0.1, the “MEKK15 band intensity ratio to control (normalized against β-Actin)” value ([1]; B16F0, 100 µM 2HF) was 4.7 and the “N-terminal cleaved PARP~24kDa band intensity ratio to control (normalized against β-Actin)” value ([1]; B16F0, 100 µM 2HF) was 0.1. For the same compound, the “PARP-1 band intensity ratio to control (normalized against β-Actin)” value ([1]; B16F0, 100 µM 2HF) was 0.8, the “PKC α band intensity ratio to control (normalized against β-Actin)” value ([1]; B16F0, 100 µM 2HF) was 0.2 and the “Procaspase 3 band intensity ratio to control (normalized against β-Actin)” value ([1]; B16F0, 100 µM 2HF) was 0.5. The “RAL BP-1 band intensity ratio to control (normalized against β-Actin)” value ([1]; B16F0, 100 µM 2HF) was 0.3, the “p-MEK-1 band intensity ratio to control (normalized against β-Actin)” value ([1]; B16F0, 100 µM 2HF) was 0.8 and the IC50 ([2]; MTT, 72 h, mean ±SD, n = 5, read-out: IC50 at 72 h (growth/survival)) was 44 ± 6 µM. The IC50 ([2]; Table 1, agent alone, read-out: IC50) was 44.9 ± 1.67 µM, the “Active caspase 3 band intensity ratio to control (normalized against β-Actin)” value ([3]; B16F10, 50 µM 2HF) was 1.0 and the “C-terminal cleaved PARP~89kDa band intensity ratio to control (normalized against β-Actin)” value ([3]; B16F10, 50 µM 2HF) was 1.1. For the same compound, the “N-terminal cleaved PARP~24kDa band intensity ratio to control (normalized against β-Actin)” value ([3]; B16F10, 50 µM 2HF) was 1.1, the “PARP-1 band intensity ratio to control (normalized against β-Actin)” value ([3]; B16F10, 50 µM 2HF) was 1.0 and the “Procaspase 3 band intensity ratio to control (normalized against β-Actin)” value ([3]; B16F10, 50 µM 2HF) was 0.9. The “RAL BP-1 band intensity ratio to control (normalized against β-Actin)” value ([3]; B16F10, 50 µM 2HF) was 0.5, the “Raf-1 band intensity ratio to control (normalized against β-Actin)” value ([3]; B16F10, 50 µM 2HF) was 0.5 and the “PKC α band intensity ratio to control (normalized against β-Actin)” value ([3]; B16F10, 100 µM 2HF) was 0.2. The “Procaspase 3 band intensity ratio to control (normalized against β-Actin)” value ([3]; B16F10, 100 µM 2HF) was 0.1 and the “TNF-α band intensity ratio to control (normalized against β-Actin)” value ([3]; B16F10, 100 µM 2HF) was 0.3.
